Laboratory results from patent publication US20230099367A1 (VERSITECH LIMITED, priority 2019, published 2023).
Ends that are not written are not given here.

Experiments:
plasma vasopressin = assay: Plasma vasopressin after intracerebroventricular injection; format: in vivo, C57 mice; details: i.c.v.; secretin 500 ng/5 μl, KSD179019 260 ng/5 μl; 0-60 min; vs ACSF
Procedure: The complete protocol was performed as reported in our lab. Mice were implanted with the stainless-steel cannula with a projection to the lateral ventricular region (bregma: 0.5 mm, lateral: 1.0 mm and depth: 2.0 mm). The mice were allowed to recover for at least 5 days after the surgery. […] ACSF alone was used as a vehicle control. After drug treatment, blood was collected from the jugular vein at 0, 15, 30, 45 and 60 min. Plasma samples were collected from the whole blood by centrifugation at 4000×g for 10 min at 4° C. The samples were then used for the quantification of vasopressin by the help of ELISA using a commercial kit from (Phoenix Pharmaceuticals, Inc.) according to manufacturer instruction.

blood pressure [1] = assay: Blood pressure in spontaneously hypertensive rats (DSI telemetry); format: in vivo, spontaneously hypertensive rat (SHR)
Procedure: Anti-hypertensive action of KSD179019 was analyzed by continues monitoring of the blood pressure and heart rate on spontaneously hypertensive rat (SHR) by using DSI telemetric implantation. DSI device was surgically implanted using the methodology described before. […] We used conventional combination therapy i.e. Azilsartan (Az; 0.3 μg/g BW) and Chlorthalidone (CLT; 1 μg/g BW) for the comparison with […]. Az is an angiotensin II receptor antagonist and CLT is a diuretic compound. Both these compounds are commonly used in the treatment of hypertension either individually and in combination. The dosing of the combination of Az+CLT on SHR rats is used as documented in previous publications. For blood pressure monitoring, telemetric device by DSI was used, using the implantation methodology mentioned earlier.

[2] = test system: salmonella strains (TA98, TA100, TA1535 and TA1537) and combination of two E.coli strains (uvrA and pKM101); assay: Ames test for mutagenicity (OECD-471)
Procedure: In vitro and in vivo toxicity testing was performed. All these test were performed using the OECD guidelines. […] The MTT assay was performed on liver cells (HepG2 cell line) and kidney cells (HEK293 cell line) as they are the major organs effected by drug toxicity. […] Additionally, the potential carcinogenicity of this drug is tested according to OECD-471 (Ames test) using the commercially available kit from XENOMETRIX. The mutation effect of the drug was tested in salmonella strains (TA98, TA100, TA1535 and TA1537) and on the combination of two E.coli strains (uvrA and pKM101) (FIGS. 8a; 8b; 8c; 8d and 8e). […] Additionally, as the drug's secondary metabolite can also have carcinogenic effect, the Ames test was performed in presence of liver enzymes which can cause the formation of secondary metabolites (S9 liver extract) (FIGS. 9a; 9b; 9c; 9d and 9e). […] The animal testing was done under an animal license from the Laboratory Animal Unit (LAU) of the University of Hong Kong for testing at acute, sub-chronic and chronic levels of exposure. The study was done based on the OECD-423 guidelines. […] Major organs like brain, heart, liver, kidney, intestine, and colon were collected and analysed. […]
In vitro and in vivo toxicity testing was performed. […] Major organs like brain, heart, liver, kidney, intestine, and colon were collected and analysed. […]

[3] = Acute oral toxicity over 14 days (OECD-423), LD50 estimation; format: in vivo, C57BL/6J mice
Procedure: In vitro and in vivo toxicity testing was performed. All these test were performed using the OECD guidelines. […] The MTT assay was performed on liver cells (HepG2 cell line) and kidney cells (HEK293 cell line) as they are the major organs effected by drug toxicity. […] Additionally, the potential carcinogenicity of this drug is tested according to OECD-471 (Ames test) using the commercially available kit from XENOMETRIX. The mutation effect of the drug was tested in salmonella strains (TA98, TA100, TA1535 and TA1537) and on the combination of two E.coli strains (uvrA and pKM101) (FIGS. 8a; 8b; 8c; 8d and 8e). […] Additionally, as the drug's secondary metabolite can also have carcinogenic effect, the Ames test was performed in presence of liver enzymes which can cause the formation of secondary metabolites (S9 liver extract) (FIGS. 9a; 9b; 9c; 9d and 9e). […] The animal testing was done under an animal license from the Laboratory Animal Unit (LAU) of the University of Hong Kong for testing at acute, sub-chronic and chronic levels of exposure. The study was done based on the OECD-423 guidelines. […] The test was done on 6 animals in two batches in both males and females. The body weight change remained under 2 grams (FIG. 11) which is normal growth for 9 weeks old C57BL/6J (https://www.jax.org/jax-mice-and-services/strain-data-sheet-pages/body-weight-chart-000664#). […] The animals were subjected to histological analysis post sacrificing on day 14. Major organs like brain, heart, liver, kidney, intestine, and colon were collected and analysed. […] However, in order to determine a dose for sub-chronic and chronic studies, according to OECD recommendations, 3 animals were administered 5000 mg/kg BW of drug in a single administration. […] During the 14 day observation the animals remained healthy with no change in body weight and body temperature (FIG. 13).
In vitro and in vivo toxicity testing was performed. All tests were performed using the OECD guidelines. […] The MTT assay was performed on liver cells (HepG2 cell line) and kidney cells (HEK293 cell line) as they are the major organs effected by drug toxicity. […] Additionally, the potential carcinogenicity of this drug is tested according to OECD-471 (Ames test) using the commercially available kit from XENOMETRIX. The mutation effect of the drug was tested in salmonella strains (TA98, TA100, TA1535 and TA1537) and on the combination of two E.coli strains (uvrA and pKM101) (FIGS. 19a; 19b; 19c; 19d and 19e). […] Additionally, as the drug's secondary metabolite can also have carcinogenic effect, the Ames test was performed in presence of liver enzymes which can cause the formation of secondary metabolites (S9 liver extract) (FIGS. 20a; 20b; 20c; 20d and 20e). […] The animal testing was done under an animal license from the Laboratory Animal Unit (LAU) of the University of Hong Kong for testing at acute, sub-chronic and chronic levels of exposure. The study was done based on the OECD-423 guidelines. […] The test was done on 6 animals in two batches in both males and females. The body weight change remained under 2 grams (FIG. 21) which is normal growth for 9 weeks old C57BL/6J (https://www.jax.org/jax-mice-and-services/strain-data-sheet-pages/body-weight-chart-000664#). […] The animals were subjected to histological analysis post sacrificing on day 14. Major organs like brain, heart, liver, kidney, intestine, and colon were collected and analysed. […] However, in order to determine a dose for sub-chronic and chronic studies, according to OECD recommendations, 3 animals were administered 5000 mg/kg BW of drug in a single administration. […] During the 14 day observation the animals remained healthy with no change in body weight and body temperature (FIG. 23).

SCTR = molecular target: T1, SCTR (Mus musculus, UniProt Q5FWI2); assay: Ex vivo cAMP assay on isolated mouse tissues; parameters: species or system mice (C57); details: isolated C57 mouse tissues; secretin 1 μM, KSD179019 100 μM
T1 construct: low expression levels of the intrinsic receptor; from tissue; host or cells: duodenum, pancreas, cerebellum and kidney of C57 mice
Excerpt: Various tissues were collected from C57 mice and were washed three times with ice-cold HBSS (Invitrogen). Tissues were minced and weighed equally into four parts. […] After drug treatment, the tissues were homogenized for measuring the concentration of the cAMP by the Lance cAMP assay kit.

human SCTR = molecular target: T2, human SCTR (Homo sapiens, UniProt P47872); assay: In vitro Lance cAMP assay in CHO cells overexpressing human SCTR; format: cell-based
T2 construct: expressed in transfected cells; host or cells: CHO cells
Procedure: As SCTR is known to have cAMP as the secondary messenger, therefore to study receptor activation, the concentration of cAMP is measured by the help of Lance cAMP assay using the assay kit from PerkinElmer, as per the standardized protocol in our lab. […] Additionally, the cells upon transfection were used for the extraction of total RNA (TriPure reagent, Invitrogen) to confirm the receptor's expression.
The selected compounds were procured from TargetMol and chemicalbook.com. […] The five compounds were then used for analyzing their dose-dependent response on the SCTR to verify their effect on the receptor.

[4] = in vivo; cited from earlier work
blood pressure [5] = assay: Blood pressure after intraperitoneal secretin (DSI telemetry); format: in vivo, C57 mice; details: secretin 0.5 μg/g BW intraperitoneal; 5 min post administration
Procedure: The DSI telemetric device was implanted using the standardized protocol from our lab. Post recovery, blood pressure measurements, and drug administration were initiated. […] The heart rate and blood pressure were measured continually up to 150 min post-injection time.

[6] = 14 days after 2000 mg/kg BW oral

T2 sequence (P47872 23-440): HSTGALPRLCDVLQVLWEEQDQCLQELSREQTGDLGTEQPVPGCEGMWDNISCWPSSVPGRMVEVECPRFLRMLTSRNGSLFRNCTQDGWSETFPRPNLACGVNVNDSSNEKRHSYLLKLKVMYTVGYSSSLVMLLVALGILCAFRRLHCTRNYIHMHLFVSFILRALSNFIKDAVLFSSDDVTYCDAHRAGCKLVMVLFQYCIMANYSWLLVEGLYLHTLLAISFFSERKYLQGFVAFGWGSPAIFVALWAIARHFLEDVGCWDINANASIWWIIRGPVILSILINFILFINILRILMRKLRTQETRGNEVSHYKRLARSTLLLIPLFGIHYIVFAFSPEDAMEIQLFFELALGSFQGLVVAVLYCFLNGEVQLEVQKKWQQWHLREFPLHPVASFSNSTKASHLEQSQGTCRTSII
T1 sequence (Q5FWI2 29-447): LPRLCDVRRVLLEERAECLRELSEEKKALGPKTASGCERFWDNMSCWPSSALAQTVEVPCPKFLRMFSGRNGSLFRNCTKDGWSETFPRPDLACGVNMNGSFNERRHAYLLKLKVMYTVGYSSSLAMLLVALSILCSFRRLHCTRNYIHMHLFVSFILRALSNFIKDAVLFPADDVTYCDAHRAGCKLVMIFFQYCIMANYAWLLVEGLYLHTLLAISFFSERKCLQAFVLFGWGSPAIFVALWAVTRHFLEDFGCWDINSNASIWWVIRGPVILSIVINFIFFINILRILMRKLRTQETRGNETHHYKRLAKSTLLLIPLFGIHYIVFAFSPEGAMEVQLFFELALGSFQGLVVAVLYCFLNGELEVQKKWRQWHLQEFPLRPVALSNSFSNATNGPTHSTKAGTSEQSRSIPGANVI

For `c1ccc2c(Oc3nc(Nc4ccc(N5CCOCC5)cc4)c4ncn(C5CCCCC5)c4n3)cccc2c1` [KSD179019, puromorphamine], the “plasma Vp (vasopressin) concentration” value (plasma vasopressin) was “significant increase in plasma Vp”, the “hypotensive effect, times longer than combination therapy (Az and CLT)” value (blood pressure [1]; SHR rats) was 3 times and the “hypotensive effect, times longer than secretin peptide” value (blood pressure [1]; SHR rats) was 360 times. For the same molecule, the “time that reduction in blood pressure lasted significantly” value (blood pressure [1]; SHR, 0.26 μg/g BW tail vein (FIG. 12C)) was “up to 20 hours”, the blood pressure reduction (blood pressure [1]; SHR, 0.26 μg/g BW tail vein injection, vs saline) was “consistent blood pressure reduction” and the “drop in blood pressure at peak” value (blood pressure [1]; SHR, KSD179019, peaked at 40 hours) was 10%. For the same molecule, the “reduction in mean arterial blood pressure” value (blood pressure [1]; SHR, intravenous 0.26 μg/g BW, up to 60 hours post administration) was “approximately 10%”, the “reduction of MABP” value (blood pressure [1]; SHR, intravenous, at 40 and 60 hours (FIG. 13B, N=2)) was 10% and the “time window of statistically significant drops in diastolic and systolic blood pressure” value (blood pressure [1]; SHR, oral 30, 50 and 80 mg/kg BW (FIG. 17)) was 20 to 50 h. The “time window of statistically significant drops in diastolic and systolic blood pressure” value (blood pressure [1]; SHR, tail-vein 0.26 μg/g body weight (FIG. 16)) was 20 to 50 h, the “duration of hypotensive effect post administration” value (blood pressure [1]; SHR, until blood pressure recovered / effect still observed) was “up to 60 hours” and the “carcinogenic potential of drug or metabolites, Ames test” value ([2]; in presence of S9 liver extract) was “no carcinogenic potential”. The “mutation effect, Ames test” value ([2]; without S9 liver extract) was “No mutational effect”, the “fatal or toxic effects” value ([3]; 5000 mg/kg BW single administration, 14 day observation) was “no fatal or toxic effects were observed” and the “overall health of animals” value ([3]; 14 day after single oral dose of 2000 mg/kg BW) was “no effect on the overall health of animals”. The body temperature [3, 6] was “remained constant”, the body weight change [3, 6] was “under 2 grams” and the “histological analysis of major organs (necrosis)” value ([3]; day 14, brain, heart, liver, kidney, intestine, colon, 2000 mg/kg BW) was “None of these organs were observed to have any signs of necrosis”. The LD50 ([3]; single oral administration, male and female mice, estimated, no fatality at 2000 mg/kg BW) was 2000-5000 mg/kg BW, the “cAMP production from duodenum, cerebellum and pancreas” value (SCTR) was “able to stimulate cAMP production” and the “efficacy, % of maximal cAMP (of secretin)” value (human SCTR; SCT with KSD179019 (100 μM), maximal cAMP by SCT at 1 μM) was 131.9%. For the same molecule, the “cAMP concentration compared to basal level (agonist screening)” value (human SCTR; compound 100 μM, CHO cells overexpressing human SCTR) was “low but statistically significant increase in cAMP concentration”, the “cAMP response together with secretin (antagonist screening)” value (human SCTR; compound (10 μM in FIG. 6 legend, 100 μM elsewhere in the source) with 1 μM secretin) was “potentiated the effect of secretin with significantly higher cAMP response” and the “dose-dependent effect on secretin cAMP stimulation” value (human SCTR; different secretin concentrations plus KSD179019 100 μM) was “dose-dependent potentiation of secretin on cAMP stimulation”.
For “SecreFlo: synthetic secretin peptide analog (HSDGTFTSELSRLRDSARLQRLLQGLV; ends and bridges not checked; UniProt P63298 33-59, looked up)”, the half-life in circulation [4] is listed as 20 min.
In the case of “ChiRhoStim: synthetic secretin peptide analog”, the half-life in circulation [4] is given as 45 min.
In the case of `CC(C)C[C@H](NC(=O)CNC(=O)[C@H](CCC(N)=O)NC(=O)[C@H](CC(C)C)NC(=O)[C@H](CC(C)C)NC(=O)[C@H](CCCNC(=N)N)NC(=O)[C@H](CCC(N)=O)NC(=O)[C@H](CC(C)C)NC(=O)[C@H](CCCNC(=N)N)NC(=O)[C@H](C)NC(=O)CNC(=O)[C@H](CCC(=O)O)NC(=O)[C@H](CCCNC(=N)N)NC(=O)[C@H](CC(C)C)NC(=O)[C@H](CCCNC(=N)N)NC(=O)[C@H](CO)NC(=O)[C@H](CC(C)C)NC(=O)[C@H](CCC(=O)O)NC(=O)[C@H](CO)NC(=O)[C@@H](NC(=O)[C@H](Cc1ccccc1)NC(=O)[C@@H](NC(=O)CNC(=O)[C@H](CC(=O)O)NC(=O)[C@H](CO)NC(=O)[C@@H](N)Cc1c[nH]cn1)[C@@H](C)O)[C@@H](C)O)C(=O)N[C@H](C(N)=O)C(C)C` [secretin, reference compound], the half-life in circulation [4] is given as “approximately 2 min”, the “plasma Vp (vasopressin) concentration” value (plasma vasopressin) is given as “significant increase in plasma Vp” and the “duration of blood pressure reduction” value (blood pressure [1]; intravenous injection of secretin peptide) is given as “approximately 10 min”. The “cAMP production from duodenum, cerebellum and pancreas” value (SCTR) was “able to stimulate cAMP production” and the “systolic and diastolic blood pressure drop” value (blood pressure [5]) was “blood pressure drop was significant”.
